For 16 molecules, IC50 results are on record in patent publication US20230364070A1, “PYRROLO[3,2-C]PYRIDIN-4-ONE DERIVATIVES USEFUL IN THE TREATMENT OF CANCER” (Scorpion Therapeutics, Inc., priority 2020, published 2023).

What all share (type): cell-based
Assay [1] addresses T1, pEGFR in Ba/F3 cells expressing EGFR exon 20 NPG Ins D770_N771 (Homo sapiens, UniProt P00533, INS770NPG).
T1 construct: expressed in transfected cells; host or cells: Ba/F3 (murine pro-B cells), retroviral transduction, puromycin selection, IL3-independent pool
Briefly: Inhibitor activity on EGFR phosphorylation (pEGFR AlphaLISA, 2 h), Ba/F3 EGFR exon 20 NPG insertion. To be noted: Ba/F3 EGFR exon 20 NPG Ins D770_N771. (Alpha assays give light when donor and acceptor beads are brought close together.)

Assay [2] has as its target T2, pEGFR in Ba/F3 cells expressing EGFR exon 20 ASV Ins V769_D770 (Homo sapiens, UniProt P00533, INS769ASV).
T2 construct: expressed in transfected cells; host or cells: Ba/F3 (murine pro-B cells), retroviral transduction, puromycin selection, IL3-independent pool
Briefly: Inhibitor activity on EGFR phosphorylation (pEGFR AlphaLISA, 2 h), Ba/F3 EGFR exon 20 ASV insertion. To be noted: Ba/F3 EGFR exon 20 ASV Ins V769_D770.

Assay [3] addresses T3, pEGFR in CUTO14 cells (Homo sapiens, UniProt P00533, DUP767-769).
T3 construct: endogenous in cells; host or cells: CUTO14 cells
Briefly: Inhibitor activity on EGFR phosphorylation (pEGFR AlphaLISA, 2 h), CUTO14 cells. The procedure:
CUTO14 cells were obtained from Dr. Robert C. Doebele at the University of Colorado.
Shake 350 rpm for 1 hr in the dark • 3.4 Prepare donor mix under low light conditions prior to use. Dispense 5 μL of donor mix to all the wells. Mix well on the shaker, seal and wrap in aluminum foil and incubate 1.5 hrs at room temperature in the dark • 3.5 Transfer 18.5 μL mixture to OptiPlate 384, and read using an Envision.

In assay [4] the target is T4, Ba/F3 cells with EGFR WT (Homo sapiens, UniProt P00533).
T4 construct: expressed in transfected cells; host or cells: Ba/F3 (murine pro-B cells), retroviral transduction, puromycin selection, maintained with EGF
Briefly: EGFR activity: Ba/F3 cell viability (CellTiter-Glo, 72 h), EGFR WT. To be noted: read-out: BaF3 WT IC50.

Assay [5] has as its target T5, Ba/F3 cells with EGFR exon 20 NPG Ins D770_N771 (Homo sapiens, UniProt P00533, INS770NPG).
T5 construct: expressed in transfected cells; host or cells: Ba/F3 (murine pro-B cells), retroviral transduction, puromycin selection, IL3-independent pool
Briefly: EGFR activity: Ba/F3 cell viability (CellTiter-Glo, 72 h), EGFR exon 20 NPG insertion. To be noted: EGFR exon 20 NPG Ins D770_N771, cell viability, read-out: BaF3 NPG IC50. A general note: ATP-based viability assays read luminescence as a measure of living cells.

Assay [6] has as its target T6, Ba/F3 cells with EGFR exon 20 ASV Ins V769_D770 (Homo sapiens, UniProt P00533, INS769ASV).
T6 construct: expressed in transfected cells; host or cells: Ba/F3 (murine pro-B cells), retroviral transduction, puromycin selection, IL3-independent pool
In words: EGFR activity: Ba/F3 cell viability (CellTiter-Glo, 72 h), EGFR exon 20 ASV insertion. To be noted: EGFR exon 20 ASV Ins V769_D770, cell viability, read-out: BaF3 ASV IC50.

Broadly, the IC50 is the concentration that gives 50% inhibition.

T4 sequence (P00533 25-1210): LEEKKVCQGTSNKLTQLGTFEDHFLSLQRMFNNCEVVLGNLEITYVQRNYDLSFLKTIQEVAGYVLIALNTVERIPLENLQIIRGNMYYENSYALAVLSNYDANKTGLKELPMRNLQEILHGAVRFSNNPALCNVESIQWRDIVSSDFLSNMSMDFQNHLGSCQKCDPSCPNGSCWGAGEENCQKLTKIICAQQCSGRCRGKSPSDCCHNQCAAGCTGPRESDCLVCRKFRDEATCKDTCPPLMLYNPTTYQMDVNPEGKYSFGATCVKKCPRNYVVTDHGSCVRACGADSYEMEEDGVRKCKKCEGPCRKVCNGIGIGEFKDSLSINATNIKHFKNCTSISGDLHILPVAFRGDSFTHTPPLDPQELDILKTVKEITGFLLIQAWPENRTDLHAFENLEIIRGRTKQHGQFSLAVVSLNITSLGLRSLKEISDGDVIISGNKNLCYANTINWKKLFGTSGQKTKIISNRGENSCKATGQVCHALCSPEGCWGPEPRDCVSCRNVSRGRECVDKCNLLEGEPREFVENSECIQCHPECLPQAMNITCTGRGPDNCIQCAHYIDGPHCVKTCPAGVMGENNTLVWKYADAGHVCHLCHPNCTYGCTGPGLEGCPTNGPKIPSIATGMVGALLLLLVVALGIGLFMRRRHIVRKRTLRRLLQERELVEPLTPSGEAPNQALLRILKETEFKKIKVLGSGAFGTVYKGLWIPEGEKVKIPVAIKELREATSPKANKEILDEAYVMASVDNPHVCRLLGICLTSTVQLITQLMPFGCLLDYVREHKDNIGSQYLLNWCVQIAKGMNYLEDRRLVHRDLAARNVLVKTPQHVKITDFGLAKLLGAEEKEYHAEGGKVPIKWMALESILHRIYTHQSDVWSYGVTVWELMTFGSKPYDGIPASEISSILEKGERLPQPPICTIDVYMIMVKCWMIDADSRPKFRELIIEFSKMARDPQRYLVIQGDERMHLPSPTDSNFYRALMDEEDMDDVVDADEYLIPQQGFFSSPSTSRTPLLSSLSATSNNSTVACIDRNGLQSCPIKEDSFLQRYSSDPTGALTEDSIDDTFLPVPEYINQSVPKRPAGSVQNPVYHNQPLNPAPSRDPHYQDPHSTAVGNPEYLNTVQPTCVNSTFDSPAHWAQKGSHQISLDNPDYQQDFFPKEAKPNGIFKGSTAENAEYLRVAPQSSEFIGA
T6 sequence (P00533 with tags, fused parts or gaps INS769ASV): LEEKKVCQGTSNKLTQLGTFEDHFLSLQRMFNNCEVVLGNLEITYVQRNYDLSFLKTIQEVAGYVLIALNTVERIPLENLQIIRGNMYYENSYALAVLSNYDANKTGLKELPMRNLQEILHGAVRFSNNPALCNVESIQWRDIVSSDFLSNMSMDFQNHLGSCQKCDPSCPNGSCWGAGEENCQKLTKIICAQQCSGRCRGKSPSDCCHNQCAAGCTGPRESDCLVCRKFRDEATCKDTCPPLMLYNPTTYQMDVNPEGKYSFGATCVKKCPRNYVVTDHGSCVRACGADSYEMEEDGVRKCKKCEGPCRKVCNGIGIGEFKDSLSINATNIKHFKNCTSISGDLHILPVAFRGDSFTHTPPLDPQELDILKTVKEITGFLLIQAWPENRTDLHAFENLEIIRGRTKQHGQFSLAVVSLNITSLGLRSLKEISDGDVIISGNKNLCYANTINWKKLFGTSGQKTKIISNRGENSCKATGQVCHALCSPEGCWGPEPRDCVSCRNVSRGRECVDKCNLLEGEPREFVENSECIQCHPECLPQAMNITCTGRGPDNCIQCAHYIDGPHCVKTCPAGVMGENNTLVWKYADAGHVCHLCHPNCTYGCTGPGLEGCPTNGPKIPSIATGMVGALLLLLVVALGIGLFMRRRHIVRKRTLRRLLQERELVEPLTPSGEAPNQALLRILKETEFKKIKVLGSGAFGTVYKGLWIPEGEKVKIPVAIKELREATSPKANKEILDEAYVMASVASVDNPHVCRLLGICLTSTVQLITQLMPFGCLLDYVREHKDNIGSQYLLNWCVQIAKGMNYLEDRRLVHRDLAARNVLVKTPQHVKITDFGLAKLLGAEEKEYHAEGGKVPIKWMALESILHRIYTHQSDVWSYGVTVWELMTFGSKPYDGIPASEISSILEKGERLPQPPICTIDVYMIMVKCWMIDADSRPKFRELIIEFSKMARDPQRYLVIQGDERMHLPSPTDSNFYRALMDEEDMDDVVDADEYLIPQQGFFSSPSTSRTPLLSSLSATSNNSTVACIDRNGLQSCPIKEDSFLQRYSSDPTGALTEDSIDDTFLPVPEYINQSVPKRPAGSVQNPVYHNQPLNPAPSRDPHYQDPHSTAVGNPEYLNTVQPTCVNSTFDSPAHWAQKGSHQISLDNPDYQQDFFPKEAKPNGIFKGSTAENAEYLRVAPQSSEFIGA
T2 sequence (P00533 with tags, fused parts or gaps INS769ASV): as above
T3 sequence (P00533 with tags, fused parts or gaps DUP767-769): as the sequence (P00533 with tags, fused parts or gaps INS769ASV) above

Consider `C=CC(=O)NC1(C#Cc2cnccc2-c2[nH]c3c(c2Nc2cccc(Cl)c2OC)C(=O)NCC3)CC1` [compound 207, N-{1-[2-(4-{3-[(3-chloro-2-methoxyphenyl)amino]-4-oxo-1H,5H,6H,7H-pyrrolo[3,2-c]pyridin-2-yl}pyridin-3-yl)ethynyl]cyclopropyl}prop-2-enamide], for which the concentration for half-maximal inhibition (IC50) in assay [1], in assay [2] and in assay [3] was below 100 nM each time.

Regarding `COc1c(F)cccc1Nc1c(-c2ccncc2OCc2ccnn2C)[nH]c2c1C(=O)NCC2` [Compound 480, 3-[(3-fluoro-2-methoxyphenyl)amino]-2-[3-[(2-methylpyrazol-3-yl)methoxy]pyridin-4-yl]-1H,5H,6H,7H-pyrrolo[3,2-c]pyridin-4-one], the 50% inhibitory concentration (IC50) in assay [4] is above 1000 nM; in assay [5], above 1000 nM; in assay [6], above 1000 nM; in assay [1], below 100 nM; in assay [2], 100 to 1000 nM.

Take `C=CC(=O)N1CC(F)(F)C[C@@H]1C#Cc1cnccc1-c1[nH]c2c(c1Nc1cccc(Cl)c1OC)C(=O)NCC2` [compound 519, 3-[(3-chloro-2-methoxyphenyl)amino]-2-(3-[2-[(2R)-4,4-difluoro-1-(prop-2-enoyl)pyrrolidin-2-yl]ethynyl]pyridin-4-yl)-1H,5H,6H,7H-pyrrolo[3,2-c]pyridin-4-one]: the 50% inhibitory concentration (IC50) in assay [1], in assay [2] and in assay [3] was below 100 nM throughout.

For `COc1c(Cl)cccc1Nc1c(-c2ccncc2C#CC2(C(F)(F)F)CC2)[nH]c2c1C(=O)NCC2` [compound 528, 3-[(3-chloro-2-methoxyphenyl)amino]-2-(3-[2-[1-(trifluoromethyl)cyclopropyl]ethynyl]pyridin-4-yl)-1H,5H,6H,7H-pyrrolo[3,2-c]pyridin-4-one], the IC50 in assay [1], in assay [2] and in assay [3] was below 100 nM each time.

As to `COc1c(Cl)cccc1Nc1c(-c2ccncc2C#CC2(C)COC2)[nH]c2c1C(=O)NCC2` [compound 490], the IC50 was above 1000 nM in assay [4], 100 to 1000 nM in assay [6] and below 100 nM in assay [2].

As to `COc1c(Cl)cccc1Nc1c(-c2ccncc2C#CC2CC2)[nH]c2c1C(=O)NCC2` [compound 488], the IC50 in assay [4] was 100 to 1000 nM; in assay [5], below 100 nM; in assay [6], below 100 nM; in assay [2], below 100 nM.

In the case of `C=CC(=O)N1CC[C@H]1COc1cnccc1-c1[nH]c2c(c1Nc1cccc(Cl)c1OC)C(=O)NCC2` [145b, 3-[(3-chloro-2-methoxyphenyl)amino]-2-(3-[[(2S)-1-(prop-2-enoyl)azetidin-2-yl]methoxy]pyridin-4-yl)-1H,5H,6H,7H-pyrrolo[3,2-c]pyridin-4-one], the half-maximal inhibitory concentration (IC50) in assay [1], in assay [2] and in assay [3] was below 100 nM each time.

As for `COc1c(F)cccc1Nc1c(-c2ccncc2OCc2cn3ccccc3n2)[nH]c2c1C(=O)NCC2` [Compound 481, 3-[(3-fluoro-2-methoxyphenyl)amino]-2-(3-[imidazo[1,2-a]pyridin-2-ylmethoxy]pyridin-4-yl)-1H,5H,6H,7H-pyrrolo[3,2-c]pyridin-4-one], the 50% inhibitory concentration (IC50) was 100 to 1000 nM in assay [4], above 1000 nM in assay [5], below 100 nM in assay [6] and below 100 nM in assay [2].

Consider `COc1c(F)cccc1Nc1c(-c2ccncc2OCC2CCn3ccnc32)[nH]c2c1C(=O)NCC2` (stereo not shown) [Compound 124, 3-[(3-fluoro-2-methoxyphenyl)amino]-2-(3-[5H,6H,7H-pyrrolo[1,2-a]imidazol-7-ylmethoxy]pyridin-4-yl)-1H,5H,6H,7H-pyrrolo[3,2-c]pyridin-4-one], for which the half-maximal inhibitory concentration (IC50) in assay [4] is above 1000 nM; in assay [5], above 1000 nM; in assay [6], 100 to 1000 nM; in assay [1], below 100 nM; in assay [2], 100 to 1000 nM.

As for `COc1c(F)cccc1Nc1c(-c2ccncc2OCCc2ccco2)[nH]c2c1C(=O)NCC2` [Compound 483, 3-[(3-fluoro-2-methoxyphenyl)amino]-2-[3-[2-(furan-2-yl)ethoxy]pyridin-4-yl]-1H,5H,6H,7H-pyrrolo[3,2-c]pyridin-4-one], the half-inhibitory concentration (IC50) in assay [4] is 100 to 1000 nM; in assay [5], below 100 nM; in assay [6] it was 100 to 1000 nM; in assay [1], below 100 nM; in assay [2], below 100 nM.

For `COc1c(F)cccc1Nc1c(-c2ccncc2OCc2cccn3ccnc23)[nH]c2c1C(=O)NCC2` [Compound 475, 3-[(3-fluoro-2-methoxyphenyl)amino]-2-(3-[imidazo[1,2-a]pyridin-8-ylmethoxy]pyridin-4-yl)-1H,5H,6H,7H-pyrrolo[3,2-c]pyridin-4-one], the IC50 in assay [4] was 100 to 1000 nM; in assay [5] it was 100 to 1000 nM; in assay [6], 100 to 1000 nM; in assay [1], below 100 nM; in assay [2], below 100 nM.

As to `COc1c(F)cccc1Nc1c(-c2ccncc2OCc2ccncn2)[nH]c2c1C(=O)NCC2` [Compound 478, 3-[(3-fluoro-2-methoxyphenyl)amino]-2-[3-(pyrimidin-4-ylmethoxy)pyridin-4-yl]-1H,5H,6H,7H-pyrrolo[3,2-c]pyridin-4-one], the IC50 in assay [4] is 100 to 1000 nM; in assay [5], below 100 nM; in assay [6], below 100 nM; in assay [1] it was below 100 nM; in assay [2], below 100 nM.

Turning to `COc1c(F)cccc1Nc1c(-c2ccncc2OCc2cnc3n2CCC3)[nH]c2c1C(=O)NCC2` [Compound 150, 2-(3-((6,7-dihydro-5H-pyrrolo[1,2-a]imidazol-3-yl)methoxy)pyridin-4-yl)-3-((3-fluoro-2-methoxyphenyl)amino)-1,5,6,7-tetrahydro-4H-pyrrolo[3,2-c]pyridin-4-one], the IC50 was above 1000 nM in assay [4], above 1000 nM in assay [5], 100 to 1000 nM in assay [6] and below 100 nM in assay [2].

For `COc1c(F)cccc1Nc1c(-c2ccncc2OCc2ncco2)[nH]c2c1C(=O)NCC2` [Compound 474, 3-[(3-fluoro-2-methoxyphenyl)amino]-2-[3-(1,3-oxazol-2-ylmethoxy)pyridin-4-yl]-1H,5H,6H,7H-pyrrolo[3,2-c]pyridin-4-one], the 50% inhibitory concentration (IC50) in assay [4] was 100 to 1000 nM; in assay [5], above 1000 nM; in assay [6], 100 to 1000 nM; in assay [2], below 100 nM.

With `COc1c(F)cccc1Nc1c(-c2ccncc2OCc2ncc(C)cn2)[nH]c2c1C(=O)NCC2` [Compound 477, 3-[(3-fluoro-2-methoxyphenyl)amino]-2-[3-[(5-methylpyrimidin-2-yl)methoxy]pyridin-4-yl]-1H,5H,6H,7H-pyrrolo[3,2-c]pyridin-4-one], the 50% inhibitory concentration (IC50) in assay [4], in assay [5], in assay [1] and in assay [2] was below 100 nM throughout.

Turning to `COc1c(F)cccc1Nc1c(-c2ccncc2OCc2csc3nccn23)[nH]c2c1C(=O)NCC2` [Compound 130, 3-[(3-fluoro-2-methoxyphenyl)amino]-2-(3-[imidazo[2,1-b][1,3]thiazol-3-ylmethoxy]pyridin-4-yl)-1H,5H,6H,7H-pyrrolo[3,2-c]pyridin-4-one], the 50% inhibitory concentration (IC50) in assay [4], in assay [5], in assay [6] and in assay [2] was above 1000 nM each time.
